{"source": "patent US20230167437A1", "about": "“COMPOSITIONS FOR TREATING CANCER WITH KRAS MUTATIONS AND USES THEREOF” (Aadigen, LLC, priority 2020, published 2023)", "key": {"pERK": {"test_system": "pERK", "assay": "Downstream signaling proteins quantified by ELISA on tumors", "assay_type": "in vivo, mice", "settings": "PANC1 tumors", "description": "(§1) The specificity of gRNA35A5 G12D and gRNA35T3 G12V for their targets in PANC-1 and SW403 tumors cells, have been analyzed. Female nude mice 6-weeks of age were injected with either Human pancreatic carcinoma cell (Panc1-Luc) containing the 35G>A mutation or Human colorectal cancer cells (SW403) containing 35G>T KRAS mutation (20×10^6 cells in 200 μl PBS). A period of 2 weeks was allowed for tumor development before the beginning of the experiments.\n(§2) Animal were injected on day 1 and day 7. Mice received IV injection of 100 μl ADGN/mRNA complex in 5% glucose. At Day 50, animals were sacrificed and tissues/tumors were harvested. At Day 50 post treatment, level of expression of housekeeping genes; glyceraldehyde-3-phosphate dehydrogenase (GAPDH), HPRT-1 and mitochondrial ATP synthase 6 (mATPsy6) was evaluated by PCR in the tumor, liver, spleen and lung.\n(§3) We analyzed the level of KRAS G12D or KRAS G12V gene editing by deep sequencing in PANC1 (FIG. 14A) and SW403 (FIG. 14B) tumors, respectively. […] The level of downstream signaling proteins (pAKT and pERK) were quantified by ELISA on PANC1 and SW403 tumors. […] Given that targeting KRAS using Cas9/sgRNA can induce various secondary mutations at or near the target sites, deep sequencing shown similar level of secondary oncogenic mutations (G12D, G12V, G12C, G13D, G12R, G12A, and G12S) in KRAS-mutant cancer cells (SW403/PANC-1) or cells containing wild-type KRAS (HT29) either in vitro or in vivo."}, "pAKT": {"test_system": "pAKT", "assay": "Downstream signaling proteins quantified by ELISA on tumors", "assay_type": "in vivo, mice", "settings": "PANC1 tumors", "description": "as §1, §2, §3"}, "KRAS 35G>A mutant G12D": {"test_system": "KRAS 35G>A mutant G12D", "assay": "Indel frequencies at the endogenous target sequences (T7E1 / deep sequencing) after ADGN/Cas9 mRNA/gRNA transfection", "assay_type": "cell-based, human", "settings": "for indel frequencies: deep sequencing, 72 hours after transfection, Cas9 mRNA 0.1 μg, gRNA 0.2 μg", "description": "Complex formation with mRNA:gRNA: ADGN peptide/mRNA/gRNA particles were prepared at a 20:1:1 molar ratio. ADGN/Cas9mRNA/sgRNA complexes were prepared at a 20/1/1 molar ratio with 0.5 μg mRNA: 1.5 μg sgRNA and 5% Glucose or DMEM (example for 96 well plates). […] Premixed Cas9 mRNA/gRNA were prepared in sterile water at room temperature in a glass vial (1-4 ml). ADGN-peptide solution was added dropwise (1 drop/sec) under magnetic agitation at 400 rpm to obtain a 1:2 ratio, and incubated for 30 min at room temperature or 37° C. Just before transfection, 150 μl Glucose or DMEM was added and the solution was mixed under magnetic agitation at 400 rpm for 1 minute. Then the solution was incubated for 5 min at 37° C. Then the complexes was ready for cell transfection or IV administration. Prior to IV administration, complexes were diluted in sucrose 5% solution.\n(§4) Transfection protocol. The following protocols are reported for 24/48/96 well plate format transfection. Cells should be trypsinized and seeded a day prior transfection Cells were cultured in Dulbecco's Modified Eagle's Medium (DMEM), supplemented with 2 mM glutamine, 1% antibiotics (streptomycin 10,000 μg/mL, penicillin, 10,000 IU/mL) and 10% (w/v) foetal calf serum (FCS), at 37° C. in a humidified atmosphere containing 5% CO2. 96 well plates seeded with 50,000 cells, the day prior transfection, grown to 60-80% confluence and set up to be at around 70% confluence at the day of transfection. Before transfection, cells are washed twice with DMEM (without FBS and pen/strep) (100 μl/well). Cells were then overlaid with 25 μl of complex solution, mixed gently and incubated for 10 min at 37° C.+5% CO2. 50 μl of fresh DMEM (without FBS and Antibiotics) was added and cells were incubated for 2 h at 37° C.+5% CO2 (time of exposure can be adjusted based on sensitivity of the cells). 250 μL of DMEM (containing 10% FCS and 1% antibiotics) were then added without removing the overlay of ADGN peptide/mRNA complexes. Cells were returned to the incubator (37° C., 5% CO2) and analyzed 48 hours to 72 hours post transfection.\n(§5) Nine different gRNAs targeting KRAS 35G>A mutant G12D (gRNA35A1, gRNA35A2, gRNA35A3, gRNA35A4, gRNA35A5, gRNA35A6; gRNA35A7, gRNA35A8, gRNA35A9) were evaluated on LS513, Panc1, PK-45H, and PK1 cancer cells harboring G12D KRAS mutation. Cas9 mRNA (0.1 μg) and gRNA (0.2 μg) were associated with ADGN-peptide at molar ratio 20/1 (peptide/nucleic acid). LS513, Panc1, PK-45H, PK1, HS-68 and HT-29 cells were cultured in 48 well plate format and treated with free mRNACas9-gRNA, or ADGN/mRNACas9:gRNA complex. Indel frequencies at the endogenous target sequences was evaluated 72 hours after transfection by either T7E1 method or deep sequencing. Cell proliferation was analyzed over a period of 5 days using CellTiter Glow kits on GlowMax (Promega).\nIn order to confirm the specificity of sgRNAs targeting G12V, G12C or G12D KRAS mutation, gRNA35T3 targeting G12V, gRNA34T6 targeting G12C, and gRNA35A5 targeting G12D were evaluated on a large panel of cancer cells harboring different KRAS mutations including SW403, SW480, PANC1, PK-45H, PK-1, MIA-PACA, H23, H358, HT-29, HS-68 and LS513. Cas9 mRNA (0.2 μg) and gRNA (0.4 μg) were associated with ADGN peptide at molar ratio 20/1 (peptide/nucleic acid). Cells were cultured in 48 well plate format and treated with free mRNACas9-gRNA, or ADGN/mRNACas9:gRNA complex. Indel frequencies at the endogenous target sequences was evaluated 72 hours after transfection by either T7E1 method and cell proliferation was analyzed over a period of 5 days using CellTiter Glow kits on GlowMax (Promega)."}, "[1]": {"test_system": "PANC1, PK1, LS513 and PK-45H cells", "assay": "Cell proliferation over 5 days (CellTiter Glow)", "assay_type": "cell-based, human", "description": "as §4, §5"}}, "note": "Several values for one entry are separate records, joined by “and”; a condition that tells them apart may be missing. Equal entries are not always repeated."}
{"sequence": "AGT TGG AGC TGA TGG CGT (guide AGTTGGAGCTGATGGCGT; chemistry not given here) [gRNA35A5, sgRNA target KRAS G12D mutation (35G>A); PAM AGG]", "values": [{"measurement": "level of p-ERK", "setting": "pERK", "result": "significantly reduced"}, {"measurement": "level of p-AKT", "setting": "pAKT", "result": "significantly reduced"}, {"measurement": "disruption of G12D mutant KRAS (FIG. 2A)", "setting": "KRAS 35G>A mutant G12D; G12D cancer cells vs wild type KRAS cells (HT29 or HS-68)", "result": "induced efficient disruption of G12D mutant KRAS"}, {"measurement": "indel frequency", "setting": "KRAS 35G>A mutant G12D; KRAS G12D mutated cancer cells", "result": "> 70", "unit": "%"}, {"measurement": "indel frequencies", "setting": "KRAS 35G>A mutant G12D; LS513 cells", "result": "35 ± 4", "unit": "%"}, {"measurement": "indel frequencies", "setting": "KRAS 35G>A mutant G12D; PANC1 cells", "result": "67% and 67 ± 5%"}, {"measurement": "indel frequency", "setting": "KRAS 35G>A mutant G12D; PANC-1, PK-1, and PK-45H cells, T7E1, 72 hours, Cas9 mRNA 0.2 μg, gRNA 0.4 μg", "result": "> 75", "unit": "%"}, {"measurement": "indel frequencies", "setting": "KRAS 35G>A mutant G12D; PK1 cells", "result": "78% and 78 ± 8%"}, {"measurement": "indel frequencies", "setting": "KRAS 35G>A mutant G12D; PK-45H cells", "result": "75% and 75 ± 7%"}, {"measurement": "fold more efficient than gRNA35A2 (cell proliferation)", "setting": "[1]", "result": 2, "unit": "fold"}, {"measurement": "fold more efficient than gRNA35A6 (cell proliferation)", "setting": "[1]", "result": 3, "unit": "fold"}, {"measurement": "inhibition of proliferation or survival (FIG. 2B)", "setting": "[1]; PANC1, PK1, LS513, PK-45H vs HT29 or HS-68 cells harboring KRAS WT", "result": "specifically inhibit proliferation or survival of PANC1, PK1, LS513 and PK-45H cells"}, {"measurement": "cell proliferation blocked", "setting": "[1]; PANC1, PK1, LS513 and PK-45H cells, 5 days", "result": 80, "unit": "%"}]}
